Data taken from ChEMBL document CHEMBL4190401, “Lung cancer and matrix metalloproteinases inhibitors of polyphenols from Selaginella tamariscina with suppression activity of migration” (Bioorg Med Chem Lett, 2018).
pIC50, pKd: −log10 of the molar value. Active and inactive are the calls of the source. The rule behind the calls is not given here.

Assays:
[1] = target: 72 kDa type IV collagenase (Homo sapiens, UniProt P08253); assay: Inhibition of recombinant human MMP2 preincubated for 30 mins followed by McaPro-Leu-Gly-Leu-Dpa-Ala-Arg-NH2 substrate addition measured by fluorescence assay
[2] = tested on: MGC-803; assay: Cytotoxicity against human MGC803 cells assessed as reduction in cell viability after 48 hrs by MTT assay; format: functional, cell-based; conditions: MGC-803, 48 h
[3] = tested on: HepG2; assay: Cytotoxicity against human HepG2 cells assessed as reduction in cell viability after 48 hrs by MTT assay; format: functional, cell-based; conditions: HepG2, 48 h
[4] = tested on: A549; assay: Cytotoxicity against human A549 cells assessed as reduction in cell viability after 48 hrs by MTT assay; format: functional, cell-based; conditions: A549, 48 h
[5] = tested on: T-24; assay: Cytotoxicity against human T24 cells assessed as reduction in cell viability after 48 hrs by MTT assay; format: functional, cell-based; conditions: T-24, 48 h
[6] = target: Stromelysin-1 (Homo sapiens, UniProt P08254); assay: Inhibition of recombinant human MMP3 preincubated for 30 mins followed by McaPro-Leu-Gly-Leu-Dpa-Ala-Arg-NH2 substrate addition measured by fluorescence assay; conditions: for pIC50: read-out: IC50
[7] = target: T1, Matrix metalloproteinase-9 (Homo sapiens, UniProt P14780); assay: Inhibition of recombinant human MMP9 preincubated for 30 mins followed by McaPro-Leu-Gly-Leu-Dpa-Ala-Arg-NH2 substrate addition measured by fluorescence assay
[8] = tested on: A549; assay: Antimigratory activity against human A549 cells assessed as inhibition of wound healing at 10 to 20 uM after 24 hrs by phase contrast microscopic method; format: functional, cell-based
[9] = target: T1, Matrix metalloproteinase-9; assay: Binding affinity to MMP9 (unknown origin) by SPR assay
[10] = tested on: A549; assay: Induction of apoptosis in human A549 cells assessed as live cells at 10 uM after 24 hrs by Annexin V-FITC/propidium iodide staining based flow cytometry (reference value: 91.9%); format: functional
[11] = tested on: A549; assay: Induction of apoptosis in human A549 cells assessed as live cells at 20 uM after 24 hrs by Annexin V-FITC/propidium iodide staining based flow cytometry (reference value: 91.9%); format: functional
[12] = tested on: A549; assay: Induction of apoptosis in human A549 cells assessed as live cells at 40 uM after 24 hrs by Annexin V-FITC/propidium iodide staining based flow cytometry (reference value: 91.9%); format: functional
[13] = tested on: A549; assay: Induction of apoptosis in human A549 cells assessed as early apoptotic cells at 10 uM after 24 hrs by Annexin V-FITC/propidium iodide staining based flow cytometry (reference value: 1.2%); format: functional
[14] = tested on: A549; assay: Induction of apoptosis in human A549 cells assessed as early apoptotic cells at 20 uM after 24 hrs by Annexin V-FITC/propidium iodide staining based flow cytometry (reference value: 1.2%); format: functional
[15] = tested on: A549; assay: Induction of apoptosis in human A549 cells assessed as early apoptotic cells at 40 uM after 24 hrs by Annexin V-FITC/propidium iodide staining based flow cytometry (reference value: 1.2%); format: functional
[16] = tested on: A549; assay: Induction of apoptosis in human A549 cells assessed as late apoptotic cells at 10 uM after 24 hrs by Annexin V-FITC/propidium iodide staining based flow cytometry (reference value: 2.8%); format: functional
[17] = tested on: A549; assay: Induction of apoptosis in human A549 cells assessed as late apoptotic cells at 20 uM after 24 hrs by Annexin V-FITC/propidium iodide staining based flow cytometry (reference value: 2.8%); format: functional
[18] = tested on: A549; assay: Induction of apoptosis in human A549 cells assessed as late apoptotic cells at 40 uM after 24 hrs by Annexin V-FITC/propidium iodide staining based flow cytometry (reference value: 2.8%); format: functional
[19] = tested on: A549; assay: Induction of apoptosis in human A549 cells after 24 hrs by Annexin V-FITC/propidium iodide staining based flow cytometry; format: functional, cell-based
[20] = tested on: A549; assay: Induction of apoptosis in human A549 cells at 10 to 40 uM after 24 hrs by acridine orange/ethidium bromide double staining based fluorescence microscopic method; format: functional, cell-based
[21] = tested on: A549; assay: Induction of apoptosis in human A549 cells assessed as increase in caspase-3 level after 24 hrs by Western blot method; format: functional, cell-based
[22] = tested on: A549; assay: Induction of apoptosis in human A549 cells assessed as increase in caspase-9 level at 10 to 40 uM after 24 hrs by Western blot method; format: functional, cell-based
[23] = tested on: A549; assay: Induction of apoptosis in human A549 cells assessed as increase in Bax level after 24 hrs by Western blot method; format: functional, cell-based
[24] = tested on: A549; assay: Induction of apoptosis in human A549 cells assessed as decrease in Bcl-2 level at 10 to 40 uM after 24 hrs by Western blot method; format: functional, cell-based

Sequence of Stromelysin-1 (P08254 whole entry): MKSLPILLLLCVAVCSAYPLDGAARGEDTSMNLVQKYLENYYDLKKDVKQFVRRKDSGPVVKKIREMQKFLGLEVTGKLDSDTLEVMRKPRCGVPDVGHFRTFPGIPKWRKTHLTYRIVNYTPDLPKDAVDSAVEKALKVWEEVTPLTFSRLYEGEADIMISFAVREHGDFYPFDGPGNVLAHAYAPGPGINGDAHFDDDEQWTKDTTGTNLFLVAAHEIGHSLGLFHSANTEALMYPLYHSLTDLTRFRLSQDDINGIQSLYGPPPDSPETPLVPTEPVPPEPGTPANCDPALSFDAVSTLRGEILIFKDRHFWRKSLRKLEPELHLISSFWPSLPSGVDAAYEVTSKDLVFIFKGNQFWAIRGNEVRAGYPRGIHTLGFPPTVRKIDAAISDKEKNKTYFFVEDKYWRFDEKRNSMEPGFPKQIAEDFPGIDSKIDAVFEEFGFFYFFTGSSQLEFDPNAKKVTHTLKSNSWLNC
Sequence of 72 kDa type IV collagenase (P08253 whole entry): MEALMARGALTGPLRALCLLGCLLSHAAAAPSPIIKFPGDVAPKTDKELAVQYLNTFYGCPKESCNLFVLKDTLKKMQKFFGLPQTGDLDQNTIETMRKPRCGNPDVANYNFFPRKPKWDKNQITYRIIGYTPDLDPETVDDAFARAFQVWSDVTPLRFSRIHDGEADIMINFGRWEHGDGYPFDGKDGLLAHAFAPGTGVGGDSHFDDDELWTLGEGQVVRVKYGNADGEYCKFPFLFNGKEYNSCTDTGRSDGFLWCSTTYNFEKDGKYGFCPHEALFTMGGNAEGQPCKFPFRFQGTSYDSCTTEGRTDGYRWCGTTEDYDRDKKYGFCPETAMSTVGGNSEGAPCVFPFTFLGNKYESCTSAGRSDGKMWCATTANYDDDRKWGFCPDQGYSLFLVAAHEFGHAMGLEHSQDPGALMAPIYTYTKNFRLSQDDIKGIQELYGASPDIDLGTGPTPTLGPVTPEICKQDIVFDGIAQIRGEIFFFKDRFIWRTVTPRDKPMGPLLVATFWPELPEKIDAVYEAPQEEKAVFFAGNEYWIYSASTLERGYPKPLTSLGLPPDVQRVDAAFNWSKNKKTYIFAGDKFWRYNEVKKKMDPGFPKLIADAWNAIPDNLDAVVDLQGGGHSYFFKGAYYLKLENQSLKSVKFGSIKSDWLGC
T1 sequence (P14780 whole entry): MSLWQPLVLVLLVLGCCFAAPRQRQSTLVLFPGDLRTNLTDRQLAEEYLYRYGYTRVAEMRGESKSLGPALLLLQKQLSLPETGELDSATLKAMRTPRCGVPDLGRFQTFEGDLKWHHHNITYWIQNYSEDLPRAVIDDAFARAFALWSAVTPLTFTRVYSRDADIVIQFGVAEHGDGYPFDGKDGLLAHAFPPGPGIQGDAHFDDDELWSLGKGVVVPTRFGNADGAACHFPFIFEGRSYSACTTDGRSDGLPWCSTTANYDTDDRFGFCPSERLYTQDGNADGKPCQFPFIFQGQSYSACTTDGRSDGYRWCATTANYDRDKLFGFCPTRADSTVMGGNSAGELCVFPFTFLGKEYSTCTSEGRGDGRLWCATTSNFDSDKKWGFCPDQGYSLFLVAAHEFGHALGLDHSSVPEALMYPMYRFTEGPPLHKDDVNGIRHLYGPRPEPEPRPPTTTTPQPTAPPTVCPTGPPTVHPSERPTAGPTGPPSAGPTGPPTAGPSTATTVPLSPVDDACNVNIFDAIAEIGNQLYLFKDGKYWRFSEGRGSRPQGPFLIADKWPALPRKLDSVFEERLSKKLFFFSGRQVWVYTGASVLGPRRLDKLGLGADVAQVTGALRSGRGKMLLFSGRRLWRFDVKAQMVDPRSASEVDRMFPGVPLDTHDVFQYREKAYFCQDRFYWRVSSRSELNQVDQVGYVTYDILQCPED

For `O=C(c1ccc(O)cc1)c1cc(-c2ccc(O)cc2)c(-c2ccc(O)cc2)c(-c2ccc(O)cc2)c1`, the pIC50 [1] was 4.27, the pIC50 [2] was < 4.30 and the pIC50 [3] was < 4.30. The pIC50 [4] was < 4.30, the pIC50 [5] was < 4.30 and the pIC50 [6] was 4.18. For the same compound, the pIC50 [7] was < 4.00.
For `CC[C@@]1(O)C(=O)OCc2c1cc1n(c2=O)Cc2cc3cc(O)ccc3nc2-1` [HYDROXYCAMPTOTHECIN], the pIC50 [2] was 5.18, the pIC50 [3] was 5.50 and the pIC50 [4] was 5.76. The pIC50 [5] was 4.93.
With `O=c1cc(-c2ccc(O)c(-c3c(O)cc(O)c4c(=O)cc(-c5ccc(O)cc5)oc34)c2)oc2cc(O)cc(O)c12` [AMENTOFLAVONE] the pIC50 [1] was 4.52, the Activity [8] was “Active” and the pIC50 [2] was 5.01. It also gave a pIC50 [3] of 5.04, a pIC50 [4] of 5.08 and a pIC50 [5] of 4.97. The pIC50 [6] was < 4.00, the pIC50 [7] was 5.59 and the pKd [9] was 5.66. For the same compound, the Activity [10] was 86%, the Activity [11] was 59% and the Activity [12] was 57.2%. It also gave an Activity [13] of 2.5%, an Activity [14] of 9.5% and an Activity [15] of 6.4%. For the same compound, the Activity [16] was 7.9%, the Activity [17] was 28.3% and the Activity [18] was 34.3%. The Activity [19] was “Dose-dependent effect”, the Activity [20] was “Active” and the Activity [21] was “Dose-dependent effect”. For the same compound, the Activity [22] was “Active”, the Activity [23] was “Dose-dependent effect” and the Activity [24] was “Active”.
With `O=C(/C=C(\c1ccccc1)c1c(-c2ccc(O)cc2)cccc1-c1ccc(O)cc1)c1ccc(O)cc1` the pIC50 [1] was < 4.00, the pIC50 [2] was < 4.30 and the pIC50 [3] was < 4.30. For the same compound, the pIC50 [4] was < 4.30, the pIC50 [5] was < 4.30 and the pIC50 [6] was < 4.00. The pIC50 [7] was 4.61.
For `COc1ccc(-c2cc(=O)c3c(O)cc(O)cc3o2)cc1-c1c(O)cc2c(c1O)C(=O)CC(c1ccc(O)cc1)O2` (stereo not given), the pIC50 [1] was < 4.00, the pIC50 [2] was < 4.30 and the pIC50 [3] was < 4.30. For the same compound, the pIC50 [4] was < 4.30, the pIC50 [5] was < 4.30 and the IC50 [6] was “Not Active”. The pIC50 [7] was 4.43.
With `COc1ccc(C2CC(=O)c3c(O)cc(O)cc3O2)cc1-c1c(O)cc(O)c2c(=O)cc(-c3ccc(O)cc3)oc12` (stereo not given) the pIC50 [1] was 4.34, the pIC50 [2] was 4.44 and the pIC50 [3] was 4.46. The pIC50 [4] was 4.51, the pIC50 [5] was 4.46 and the pIC50 [6] was 4.13. The pIC50 [7] was 4.53.
With `O=C1OCc2ccc(-c3ccc(O)cc3)c(C(=O)c3ccc(O)cc3)c21` the pIC50 [1] was 4.09, the pIC50 [2] was 4.58 and the pIC50 [3] was 4.61. It also gave a pIC50 [4] of 4.66, a pIC50 [5] of 4.63 and a pIC50 [6] of 4.39. It also gave a pIC50 [7] of 4.44.
With `COc1ccc(-c2cc(=O)c3c(O)cc(O)cc3o2)cc1-c1c(O)cc(O)c2c(=O)cc(-c3ccc(O)cc3)oc12` [BILOBETIN] the pIC50 [1] was < 4.00, the pIC50 [2] was < 4.30 and the pIC50 [3] was < 4.30. For the same compound, the pIC50 [4] was < 4.30, the pIC50 [5] was < 4.30 and the pIC50 [6] was < 4.00. It also gave a pIC50 [7] of 4.99.
`O=C1OC(c2ccc(O)cc2)(c2ccc(O)cc2)c2c(-c3ccc(O)cc3)ccc(CO)c21` gave a pIC50 [1] of 4.27, a pIC50 [2] of 4.86 and a pIC50 [3] of 4.81. For the same compound, the pIC50 [4] was 4.96, the pIC50 [5] was 4.90 and the pIC50 [6] was 4.06. For the same compound, the pIC50 [7] was 4.74.
With `COc1ccc(-c2cc(=O)c3c(O)cc(O)cc3o2)cc1-c1c(O)cc2oc(-c3ccc(O)cc3)cc(=O)c2c1O` the pIC50 [1] was < 4.00, the pIC50 [2] was 4.66 and the pIC50 [3] was 4.58. It also gave a pIC50 [4] of 4.59, a pIC50 [5] of 4.59 and a pIC50 [6] of 4.43. For the same compound, the pIC50 [7] was 4.58.
With `O=c1cc(-c2ccc(O)c(-c3c(O)cc4oc(-c5ccc(O)cc5)cc(=O)c4c3O)c2)oc2cc(O)cc(O)c12` [ROBUSTAFLAVONE] the pIC50 [1] was 4.99, the pIC50 [2] was 4.81 and the pIC50 [3] was 4.72. For the same compound, the pIC50 [4] was 4.67, the pIC50 [5] was 4.68 and the IC50 [6] was “Not Active”. For the same compound, the pIC50 [7] was 4.93.
`COc1ccc(C2CC(=O)c3c(O)cc(O)cc3O2)cc1-c1c(O)cc2c(c1O)C(=O)CC(c1ccc(O)cc1)O2` (stereo not given) showed a pIC50 [1] of 4.45, a pIC50 [2] of 4.58 and a pIC50 [3] of 4.55. The pIC50 [4] was 4.56, the pIC50 [5] was 4.56 and the IC50 [6] was “Not Active”. It also gave a pIC50 [7] of 4.59.
For `O=C(O)c1c(-c2ccc(O)cc2)ccc(CO)c1C#Cc1ccc(O)cc1`, the pIC50 [1] was 4.07, the pIC50 [2] was 4.49 and the pIC50 [3] was 4.52. The pIC50 [4] was 4.47, the pIC50 [5] was 4.43 and the pIC50 [6] was 4.08. It also gave a pIC50 [7] of 4.39.
